Reference: ChEMBL document CHEMBL3826915, “Design and comparative anticonvulsant activity assessment of CNS-active alkyl-carbamoyl imidazole derivatives” (Bioorg Med Chem, 2016)
Activity calls are given as the source filed them. The calls are words filed in the database; no cut-off is given here.

How the values were obtained:
Mus musculus [1] = assay: Anticonvulsant activity in ip dosed albino CF1 mouse assessed as protection against 6 Hz current-induced seizure by measuring time to peak effect; type: functional
Mus musculus [2] = assay: Anticonvulsant activity in ip dosed albino CF1 mouse assessed as protection against subcutaneous metrazol-induced seizures; type: functional
Mus musculus [3] = assay: Anticonvulsant activity in ip dosed albino CF1 mouse assessed as protection against subcutaneous metrazol-induced seizures by measuring time to peak effect; type: functional
[4] = Neurotoxicity in ip dosed albino CF1 mouse assessed as motor impairment by rotorod test; type: toxicity, organism-based; conditions: in vivo
Mus musculus [5] = assay: Anticonvulsant activity in ip dosed albino CF1 mouse assessed as protection against maximal electroshock-induced seizures by measuring time to peak effect; type: functional
Mus musculus [6] = assay: Anticonvulsant activity in ip dosed albino CF1 mouse assessed as protection against maximal electroshock-induced seizures; type: functional
[7] = Protective index, ratio of TD50 for neurotoxicity in ip dosed albino CF1 mouse to ED50 for anticonvulsant activity in ip dosed maximal electroshock-induced seizure albino CF1 mouse model; type: toxicity, organism-based; conditions: in vivo, read-out: Ratio TD50/ED50
Mus musculus [8] = assay: Anticonvulsant activity in albino CF1 mouse assessed as protection against 32 mA current-induced seizure at 30 mg/kg, ip after 2 hrs by 6 Hz psychomotor test; type: functional, organism-based
Mus musculus [9] = assay: Neurotoxicity in albino CF1 mouse assessed as behavioral impairment at 300 mg/kg, ip after 2 hrs by rotorod test; type: toxicity, organism-based; conditions: in vivo
Mus musculus [10] = assay: Anticonvulsant activity in albino CF1 mouse assessed as protection against 32 mA current-induced seizure at 30 mg/kg, ip after 0.5 hrs by 6 Hz psychomotor test; type: functional, organism-based
Mus musculus [11] = assay: Anticonvulsant activity in albino CF1 mouse assessed as protection against maximal electroshock-induced seizures at 30 mg/kg, ip after 0.5 hrs; type: functional, organism-based
Mus musculus [12] = assay: Neurotoxicity in albino CF1 mouse assessed as behavioral impairment at 300 mg/kg, ip after 0.5 hrs by rotorod test; type: toxicity, organism-based; conditions: in vivo
Mus musculus [13] = assay: Anticonvulsant activity in albino CF1 mouse assessed as protection against maximal electroshock-induced seizures at 100 mg/kg, ip after 0.5 hrs; type: functional, organism-based
Mus musculus [14] = assay: Anticonvulsant activity in albino CF1 mouse assessed as protection against maximal electroshock-induced seizures at 30 mg/kg, ip after 2 hrs; type: functional, organism-based
Mus musculus [15] = assay: Neurotoxicity in albino CF1 mouse assessed as behavioral impairment at 100 mg/kg, ip after 2 hrs by rotorod test; type: toxicity, organism-based; conditions: in vivo
Mus musculus [16] = assay: Neurotoxicity in albino CF1 mouse assessed as behavioral impairment at 30 mg/kg, ip after 0.5 hrs by rotorod test; type: toxicity, organism-based; conditions: in vivo
Mus musculus [17] = assay: Neurotoxicity in albino CF1 mouse assessed as behavioral impairment at 30 mg/kg, ip after 2 hrs by rotorod test; type: toxicity, organism-based; conditions: in vivo
Mus musculus [18] = assay: Anticonvulsant activity in albino CF1 mouse assessed as protection against 32 mA current-induced seizure at 100 mg/kg, ip after 2 hrs by 6 Hz psychomotor test; type: functional, organism-based
Rattus norvegicus [19] = assay: Anticonvulsant activity in albino Sprague-Dawley rat assessed as protection against maximal electroshock-induced seizures at 30 mg/kg, po after 1 hr; type: functional, organism-based
Rattus norvegicus [20] = assay: Neurotoxicity in albino Sprague-Dawley rat assessed as behavioral impairment at 30 mg/kg, ip after 1 hr by rotorod test; type: toxicity, organism-based; conditions: in vivo
Rattus norvegicus [21] = assay: Neurotoxicity in albino Sprague-Dawley rat assessed as behavioral impairment at 30 mg/kg, po after 1 hr by rotorod test; type: toxicity, organism-based; conditions: in vivo
Rattus norvegicus [22] = assay: Anticonvulsant activity in albino Sprague-Dawley rat assessed as protection against maximal electroshock-induced seizures at 30 mg/kg, po after 0.25 hrs; type: functional, organism-based
Rattus norvegicus [23] = assay: Neurotoxicity in albino Sprague-Dawley rat assessed as behavioral impairment at 30 mg/kg, ip after 0.5 hrs by rotorod test; type: toxicity, organism-based; conditions: in vivo
Rattus norvegicus [24] = assay: Neurotoxicity in albino Sprague-Dawley rat assessed as behavioral impairment at 30 mg/kg, po after 2 hrs by rotorod test; type: toxicity, organism-based; conditions: in vivo
Rattus norvegicus [25] = assay: Neurotoxicity in albino Sprague-Dawley rat assessed as behavioral impairment at 30 mg/kg, ip after 0.25 hrs by rotorod test; type: toxicity, organism-based; conditions: in vivo
Mus musculus [26] = assay: Anticonvulsant activity in albino CF1 mouse assessed as protection against maximal electroshock-induced seizures at 100 mg/kg, ip after 2 hrs; type: functional, organism-based
Rattus norvegicus [27] = assay: Neurotoxicity in albino Sprague-Dawley rat assessed as behavioral impairment at 30 mg/kg, po after 0.5 hrs by rotorod test; type: toxicity, organism-based; conditions: in vivo
Rattus norvegicus [28] = assay: Anticonvulsant activity in albino Sprague-Dawley rat assessed as protection against maximal electroshock-induced seizures at 30 mg/kg, ip after 2 hrs; type: functional, organism-based
Rattus norvegicus [29] = assay: Neurotoxicity in albino Sprague-Dawley rat assessed as behavioral impairment at 30 mg/kg, po after 0.25 hrs by rotorod test; type: toxicity, organism-based; conditions: in vivo
Rattus norvegicus [30] = assay: Anticonvulsant activity in albino Sprague-Dawley rat assessed as protection against maximal electroshock-induced seizures at 30 mg/kg, po after 2 hrs; type: functional, organism-based
Rattus norvegicus [31] = assay: Anticonvulsant activity in albino Sprague-Dawley rat assessed as protection against maximal electroshock-induced seizures at 30 mg/kg, po after 0.5 hrs; type: functional, organism-based
Rattus norvegicus [32] = assay: Neurotoxicity in albino Sprague-Dawley rat assessed as behavioral impairment at 30 mg/kg, ip after 2 hrs by rotorod test; type: toxicity, organism-based; conditions: in vivo
Mus musculus [33] = assay: Anticonvulsant activity in albino CF1 mouse assessed as protection against maximal electroshock-induced seizures at 300 mg/kg, ip after 2 hrs; type: functional, organism-based
Mus musculus [34] = assay: Anticonvulsant activity in albino CF1 mouse assessed as protection against 32 mA current-induced seizure at 300 mg/kg, ip after 0.5 hrs by 6 Hz psychomotor test; type: functional, organism-based
Mus musculus [35] = assay: Anticonvulsant activity in albino CF1 mouse assessed as protection against 32 mA current-induced seizure at 300 mg/kg, ip after 2 hrs by 6 Hz psychomotor test; type: functional, organism-based
Mus musculus [36] = assay: Anticonvulsant activity in albino CF1 mouse assessed as protection against maximal electroshock-induced seizures at 300 mg/kg, ip after 0.5 hrs; type: functional, organism-based
Mus musculus [37] = assay: Anticonvulsant activity in albino CF1 mouse assessed as protection against 32 mA current-induced seizure at 100 mg/kg, ip after 0.5 hrs by 6 Hz psychomotor test; type: functional, organism-based
Rattus norvegicus [38] = assay: Anticonvulsant activity in albino Sprague-Dawley rat assessed as protection against maximal electroshock-induced seizures at 30 mg/kg, ip after 1 hr; type: functional, organism-based
Mus musculus [39] = assay: Anticonvulsant activity in ip dosed albino CF1 mouse assessed as protection against 6 Hz current-induced seizures by psychomotor test; type: functional
Rattus norvegicus [40] = assay: Anticonvulsant activity in albino Sprague-Dawley rat assessed as protection against maximal electroshock-induced seizures at 30 mg/kg, ip after 0.25 hrs; type: functional, organism-based
[41] = Protective index, ratio of TD50 for neurotoxicity in ip dosed albino CF1 mouse to ED50 for anticonvulsant activity in ip dosed […] metrazol-induced seizure albino CF1 mouse model; type: toxicity, organism-based; conditions: in vivo, read-out: Ratio TD50/ED50
Rattus norvegicus [42] = assay: Anticonvulsant activity in albino Sprague-Dawley rat assessed as protection against maximal electroshock-induced seizures at 30 mg/kg, ip after 0.5 hrs; type: functional, organism-based

Structure (SMILES) | Time (Mus musculus [1]) [h] | Activity (Mus musculus [8]) | Activity (Mus musculus [10]) | Activity (Mus musculus [11]) | Activity (Mus musculus [12]) | Activity (Mus musculus [13]) | Activity (Mus musculus [14]) | Activity (Mus musculus [15]) | Activity (Mus musculus [16]) | Activity (Mus musculus [17]) | Activity (Rattus norvegicus [20]) | Activity (Rattus norvegicus [21]) | Activity (Rattus norvegicus [23]) | Activity (Rattus norvegicus [24]) | Activity (Rattus norvegicus [25]) | Activity (Mus musculus [26]) | Activity (Rattus norvegicus [27]) | Activity (Rattus norvegicus [29]) | Activity (Rattus norvegicus [30]) | Activity (Rattus norvegicus [32]) | other results
CCCC(CCC)C(=O)O [VALPROIC ACID] | 0.5 |  |  |  |  |  |  |  |  |  |  |  |  |  |  |  |  |  |  |  | ED50 (Mus musculus [2]): 646 mg/kg; Time (Mus musculus [3]): 0.5 h; TD50 [4]: 784 mg/kg; Time (Mus musculus [5]): 0.5 h
NC(=O)OCC(COC(N)=O)c1ccccc1 [FELBAMATE] | 0.5 |  |  |  |  |  |  |  |  |  |  |  |  |  |  |  |  |  |  |  | ED50 (Mus musculus [6]): 25 mg/kg; ED50 (Mus musculus [2]): > 250 mg/kg; Time (Mus musculus [3]): 0.5 h; TD50 [4]: > 500 mg/kg; Time (Mus musculus [5]): 0.5 h; selectivity ratio [7]: > 20
CCCCC(CC)COC(=O)NCCCn1ccnc1 (stereo not given) |  | inactive | inactive | inactive | Toxic | Active | inactive | Non-toxic | Non-toxic | Non-toxic |  |  |  |  |  |  |  |  |  |  | Activity (Mus musculus [9]): Toxic; Activity (Mus musculus [18]): inactive
CC(C)(C)CCOC(=O)NCCCn1ccnc1 |  | inactive | inactive |  | Toxic | Active | inactive | Non-toxic | Non-toxic | Non-toxic | Non-toxic | Non-toxic | Non-toxic | Non-toxic | Non-toxic | Active | Non-toxic | Non-toxic | inactive | Non-toxic | Activity (Rattus norvegicus [19]): inactive; Activity (Mus musculus [9]): Toxic; Activity (Rattus norvegicus [22]): inactive; Activity (Rattus norvegicus [28]): inactive; Activity (Rattus norvegicus [31]): inactive
CC(C)(C)COC(=O)NCCCn1ccnc1 |  | inactive | inactive | inactive |  |  | inactive | Non-toxic | Non-toxic | Non-toxic | Non-toxic | Non-toxic | Non-toxic | Non-toxic | Non-toxic | Active | Non-toxic | Non-toxic | inactive | Non-toxic | Activity (Mus musculus [33]): Active; Activity (Rattus norvegicus [19]): inactive; Activity (Mus musculus [34]): inactive; Activity (Mus musculus [35]): inactive; Activity (Mus musculus [36]): inactive; Activity (Rattus norvegicus [31]): inactive; Activity (Mus musculus [37]): inactive; Activity (Mus musculus [18]): inactive
CCC(C)C(C)OC(=O)NCCCn1ccnc1 (stereo not given) |  | inactive | inactive | inactive | Toxic | Active | inactive | Non-toxic | Non-toxic | Non-toxic | Non-toxic | Non-toxic | Non-toxic | Non-toxic | Non-toxic | Active | Non-toxic | Non-toxic | inactive | Non-toxic | Activity (Rattus norvegicus [22]): inactive; Activity (Mus musculus [36]): Active; Activity (Rattus norvegicus [28]): inactive; Activity (Rattus norvegicus [38]): inactive; Activity (Rattus norvegicus [31]): inactive; Activity (Mus musculus [18]): inactive
O=C(NCCCn1ccnc1)OCCc1ccccc1 | 0.5 | inactive | inactive | Active | Toxic | Active | inactive | Non-toxic | Non-toxic | Non-toxic | Non-toxic | Non-toxic | Non-toxic | Non-toxic | Non-toxic | Active | Non-toxic | Non-toxic | inactive | Non-toxic | Activity (Mus musculus [33]): Active; ED50 (Mus musculus [6]): 14 mg/kg; Activity (Mus musculus [9]): Toxic; ED50 (Mus musculus [2]): > 80 mg/kg; ED50 (Mus musculus [39]): inactive; Activity (Rattus norvegicus [40]): Active; Time (Mus musculus [3]): 0.5 h; selectivity ratio [41]: 0.96; TD50 [4]: 77 mg/kg; Activity (Rattus norvegicus [42]): Active; Time (Mus musculus [5]): 0.5 h; Activity (Mus musculus [36]): Active; selectivity ratio [7]: 5.5; Activity (Mus musculus [37]): Active
